Here are results for seven molecules from patent publication US20230293403A1, “Compositions Comprising Lipophilic Compounds and One or More (Bio)-Alkanediols” (Symrise AG, priority 2020, published 2023).

Each structure is given as a SMILES string.

Data set [1] deals with skin (backside of hand) of untrained panelists. The data set is described as follows: Sensory evaluation by untrained panelists: heptanediols, octanediols and their mixtures blended 85:15 with liquid lipophilic components (Example 4, Table 22). Further details: species or system human. The note with it: in vivo. Here is the method:
Test procedure: • Hands were pre-washed with liquid soap by following a defined procedure; • 30 μl of corresponding sample was applied on the backside of each hand (randomized); • After 30 s the spreading behaviour of the respective formulation on skin was evaluated versus the respective oil component without 1,2-heptanediol on a scale from 1 to 5 (1=low spreading; 5=high spreading); • The samples were distributed with the fingertips of middle and forefinger with 2×5 cycles; • After 2 minutes, the fatty/greasy skin feel was evaluated on a scale from 1 to 5 (1=low fatty/greasy skin feel; 5=high fatty/greasy skin feel); • Furthermore the applicants were asked to assess the absorption, i.e. the impression of amount of remaining residue on the skin on a scale from 1 to 5 (1=low absorption; 5=high absorption).
For evaluating the sensory behaviour, liquid lipophilic components specified in the following Table 22 were blended with 1,2-heptanediol or 2,3-heptanediol or a mixture of 1,2-heptanediol and 2,3-heptanediol or 1,2-octanediol or 2,3-octanediol or a mixture of 1,2-octanediol and 2,3-octanediol (formulation) in a ratio of 85:15 and assessed by untrained panelists in comparison to the liquid lipophilic component without addition of the specified alkanediols (placebo).
The test procedure was carried out in the same manner as described in Example 2.

Data set [2] can be described thus: Solubility of different alkanediols or mixtures thereof in sunflower oil (Example 1). Format: physicochemical. How it is done:
Each 15 g 1,2-pentanediol, 1,2-hexanediol, 1,2-heptanediol or 1,2-octanediol were dissolved in 85 g sunflower oil. Each 15 g of a mixture of 1,2-octanediol and 2,3-octanediol (95:5) or 1,2-heptanediol and 2,3-heptanediol (95:5) were dissolved in 85 g sunflower oil.

The nature of data set [3]: Maximum solubility of alkanediols in water, visual assessment (Example 6). The conditions noted are these: assessed visually at ambient temperature after 24 h storage at 5° C.; clear mixture = dissolved.
Excerpt: For the determination of the maximum water solubility of an alkanediol, water and different concentrations of the respective alkanediol were blended by stirring. […] The determination of whether the alkanediol has dissolved in water is based entirely on visual observation.

As for `CCCCCC(O)CO` (stereo not drawn) [1,2-heptanediol], in data set [1], the “improvement in spreading of liquid lipophilic components with poor spreading by nature” value was “perform best”. In data set [2], the “solubility in sunflower oil” value is listed as “better solubility”. In addition, the “Maximum solubility in water” value in data set [3] stood at 2.5 % by weight. Consider `CCCCCCCC(O)CO` (stereo not drawn) [1,2-nonanediol], for which the “Maximum solubility in water” value in data set [3] was 0.1 % by weight. As for `CCCCCCC(O)CO` (stereo not drawn) [1,2-octanediol], the “solubility in sunflower oil” value in data set [2] is listed as “tends to precipitate or recrystallize”. With `CCCCC(O)C(C)O` (stereo not drawn) [2,3-heptanediol], the “Maximum solubility in water” value in data set [3] stood at 3.6 % by weight. Turning to `CCCCCCC(O)C(C)O` (stereo not drawn) [2,3-nonanediol], in data set [3], the “Maximum solubility in water” value is 0.3 % by weight. Take `CCCCCC(O)C(C)O` (stereo not drawn) [2,3-octanediol]: the “Maximum solubility in water” value in data set [3] was found to be 1.5 % by weight.

`CCCCCCC(O)CO` (stereo not drawn) [Hydrolite ® 8, Caprylyl Glycol]: the “Maximum solubility in water” value in data set [3] came to 0.5 % by weight.
